Reference: the NIST ThermoML archive (doi:10.1021/je300280s)
Where “and” joins values, the source holds several entries; their conditions need not be identical. Identical values can stand only once. Numbers after ± are expanded uncertainties.

What was measured:
[1] = xn = mol fraction of the nth substance listed; conditions: 101.3 kPa, Liquid, Vibrating tube method
[2] = excess molar enthalpy (molar enthalpy of mixing); xn = mol fraction of the nth substance listed; conditions: 101.3 kPa, Liquid, Flow calorimetry

CCCC(=O)OC [methyl butanoate] + O
Conditions	excess molar enthalpy, [2]	mass density, [1]
288.15 K, x1 = 0.000628	-0.00163 kcal/mol and -0.00164 kcal/mol	999.058 ± 0.033 kg/m3
288.15 K, x1 = 0.000941	-0.00247 ± 0.000203 kcal/mol	999.037 ± 0.033 kg/m3
288.15 K, x1 = 0.000943	-0.00244 ± 0.000203 kcal/mol	999.038 ± 0.033 kg/m3
288.15 K, x1 = 0.001255	-0.00319 ± 0.00021 kcal/mol	999.019 ± 0.033 kg/m3
288.15 K, x1 = 0.001257	-0.00321 ± 0.00021 kcal/mol	999.019 ± 0.033 kg/m3
288.15 K, x1 = 0.001569	-0.00403 ± 0.000217 kcal/mol	998.999 ± 0.033 kg/m3
288.15 K, x1 = 0.00157	-0.00397 ± 0.000215 kcal/mol	999.001 ± 0.033 kg/m3
288.15 K, x1 = 0.001882	-0.00473 ± 0.000225 kcal/mol	998.985 ± 0.033 kg/m3
288.15 K, x1 = 0.001884	-0.00482 ± 0.000225 kcal/mol	998.981 ± 0.033 kg/m3
298.15 K, x1 = 0.000628	-0.00122 kcal/mol and -0.00123 kcal/mol	996.968 ± 0.034 kg/m3 and 996.965 ± 0.034 kg/m3
298.15 K, x1 = 0.000942	-0.00184 kcal/mol and -0.00183 kcal/mol	996.917 ± 0.034 kg/m3 and 996.921 ± 0.034 kg/m3
298.15 K, x1 = 0.001256	-0.0024 kcal/mol and -0.00241 kcal/mol	996.885 ± 0.034 kg/m3 and 996.884 ± 0.034 kg/m3
298.15 K, x1 = 0.001569	-0.00296 ± 0.000208 kcal/mol	996.85 ± 0.034 kg/m3
298.15 K, x1 = 0.00157	-0.003 ± 0.000208 kcal/mol	996.838 ± 0.034 kg/m3
298.15 K, x1 = 0.001882	-0.0036 ± 0.000213 kcal/mol	996.8 ± 0.034 kg/m3
298.15 K, x1 = 0.001883	-0.00351 ± 0.000213 kcal/mol	996.81 ± 0.034 kg/m3
298.15 K, x1 = 0.002195	-0.00402 ± 0.000215 kcal/mol	996.774 ± 0.035 kg/m3
298.15 K, x1 = 0.002197	-0.00404 ± 0.000217 kcal/mol	996.773 ± 0.035 kg/m3
308.15 K, x1 = 0.000626	-0.000837 ± 0.000191 kcal/mol	993.913 ± 0.036 kg/m3
308.15 K, x1 = 0.000627	-0.000839 ± 0.000191 kcal/mol	993.914 ± 0.036 kg/m3
308.15 K, x1 = 0.000939	-0.00124 ± 0.000194 kcal/mol	993.855 ± 0.14 kg/m3
308.15 K, x1 = 0.000941	-0.00124 ± 0.000194 kcal/mol	993.855 ± 0.14 kg/m3
308.15 K, x1 = 0.001253	-0.00165 ± 0.000198 kcal/mol	993.793 ± 0.037 kg/m3
308.15 K, x1 = 0.001254	-0.00161 ± 0.000198 kcal/mol	993.798 ± 0.037 kg/m3
308.15 K, x1 = 0.001565	-0.00199 ± 0.000201 kcal/mol	993.741 ± 0.21 kg/m3
308.15 K, x1 = 0.001567	-0.00199 ± 0.000201 kcal/mol	993.742 ± 0.21 kg/m3
308.15 K, x1 = 0.001878	-0.00241 ± 0.000203 kcal/mol	993.673 ± 0.26 kg/m3
308.15 K, x1 = 0.00188	-0.00237 ± 0.000203 kcal/mol	993.682 ± 0.26 kg/m3
308.15 K, x1 = 0.002191	-0.00271 ± 0.000206 kcal/mol	993.626 ± 0.16 kg/m3
308.15 K, x1 = 0.002194	-0.00272 ± 0.000206 kcal/mol	993.63 ± 0.21 kg/m3
318.15 K, x1 = 0.000941	-0.00066 ± 0.000191 kcal/mol	989.988 ± 0.039 kg/m3
318.15 K, x1 = 0.000942	-0.000669 ± 0.000191 kcal/mol	989.983 ± 0.039 kg/m3
318.15 K, x1 = 0.001254	-0.000865 ± 0.000191 kcal/mol	989.911 ± 0.039 kg/m3
318.15 K, x1 = 0.001255	-0.000872 ± 0.000191 kcal/mol	989.908 ± 0.039 kg/m3
318.15 K, x1 = 0.001567	-0.00106 ± 0.000194 kcal/mol	989.837 ± 0.04 kg/m3
318.15 K, x1 = 0.001569	-0.00106 ± 0.000194 kcal/mol	989.832 ± 0.04 kg/m3
318.15 K, x1 = 0.001879	-0.00126 ± 0.000196 kcal/mol	989.762 ± 0.04 kg/m3
318.15 K, x1 = 0.001882	-0.00124 ± 0.000194 kcal/mol	989.758 ± 0.04 kg/m3
318.15 K, x1 = 0.002192	-0.00141 ± 0.000196 kcal/mol	989.694 ± 0.041 kg/m3
318.15 K, x1 = 0.002195	-0.00143 ± 0.000196 kcal/mol	989.679 ± 0.041 kg/m3
